Test system: P12-Ichikawa
Assay: cell viability relative to DMSO control; higher = less cytotoxic
Settings: 48 h
Outline: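 Leukemia cells (NOMO1 or SEM, 500 cells/well; P12-Ichikawa, 1000 cells/well) were seeded in 5 μl in 1536-well plates after at least four passages of adaptation to each medium. They received library compounds in DMSO by pin dosing, 11 threefold points from 47 μM to 0.79 nM. Luminescence with CellTiter-Glo One was read after 48 h at 37°C. Viability is stated per plate relative to DMSO wells, with cell-free wells as background.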

[1] = HPLM + 10% dialyzed FBS, 0.000781 µM
[2] = HPLM + 10% dialyzed FBS, 0.00234 µM
[3] = HPLM + 10% dialyzed FBS, 0.00702 µM
[4] = HPLM + 10% dialyzed FBS, 0.0211 µM
[5] = HPLM + 10% dialyzed FBS, 0.0632 µM
[6] = HPLM + 10% dialyzed FBS, 0.19 µM
[7] = HPLM + 10% dialyzed FBS, 0.569 µM
[8] = HPLM + 10% dialyzed FBS, 1.71 µM
[9] = HPLM + 10% dialyzed FBS, 5.12 µM
[10] = HPLM + 10% dialyzed FBS, 15.4 µM
[11] = HPLM + 10% dialyzed FBS, 46.1 µM
[12] = RPMI 5 mM glucose + 10% FBS, 0.000781 µM
[13] = RPMI 5 mM glucose + 10% FBS, 0.00234 µM
[14] = RPMI 5 mM glucose + 10% FBS, 0.00702 µM
[15] = RPMI 5 mM glucose + 10% FBS, 0.0211 µM
[16] = RPMI 5 mM glucose + 10% FBS, 0.0632 µM
[17] = RPMI 5 mM glucose + 10% FBS, 0.19 µM
[18] = RPMI 5 mM glucose + 10% FBS, 0.569 µM
[19] = RPMI 5 mM glucose + 10% FBS, 1.71 µM
[20] = RPMI 5 mM glucose + 10% FBS, 5.12 µM
[21] = RPMI 5 mM glucose + 10% FBS, 15.4 µM
[22] = RPMI 5 mM glucose + 10% FBS, 46.1 µM
[23] = RPMI 5 mM glucose + 10% dialyzed FBS, 0.000781 µM
[24] = RPMI 5 mM glucose + 10% dialyzed FBS, 0.00234 µM
[25] = RPMI 5 mM glucose + 10% dialyzed FBS, 0.00702 µM
[26] = RPMI 5 mM glucose + 10% dialyzed FBS, 0.0211 µM
[27] = RPMI 5 mM glucose + 10% dialyzed FBS, 0.0632 µM
[28] = RPMI 5 mM glucose + 10% dialyzed FBS, 0.19 µM
[29] = RPMI 5 mM glucose + 10% dialyzed FBS, 0.569 µM
[30] = RPMI 5 mM glucose + 10% dialyzed FBS, 1.71 µM
[31] = RPMI 5 mM glucose + 10% dialyzed FBS, 5.12 µM
[32] = RPMI 5 mM glucose + 10% dialyzed FBS, 15.4 µM
[33] = RPMI 5 mM glucose + 10% dialyzed FBS, 46.1 µM

SMILES	cell viability [1]	cell viability [2]	cell viability [3]	cell viability [4]	cell viability [5]	cell viability [6]	cell viability [7]	cell viability [8]	cell viability [9]	cell viability [10]	cell viability [11]	cell viability [12]	cell viability [13]	cell viability [14]	cell viability [15]	cell viability [16]	cell viability [17]	cell viability [18]	cell viability [19]	cell viability [20]	cell viability [21]	cell viability [22]	cell viability [23]	cell viability [24]	cell viability [25]	cell viability [26]	cell viability [27]	cell viability [28]	cell viability [29]	cell viability [30]	cell viability [31]	cell viability [32]	cell viability [33]
CCC1=C(C)CN(C(=O)NCCc2ccc(S(=O)(=O)NC(=O)N[C@H]3CC[C@H](C)CC3)cc2)C1=O	94.6%	102%	98.9%	104%	107%	104%	102%	105%	97.7%	109%	109%	89.5%	101%	95.5%	92.9%	95.3%	111%	107%	101%	87.3%	113%	115%	90.7%	86%	90.7%	92.5%	103%	104%	98.5%	98.8%	94.8%	104%	108%
Cn1cc(-c2ccncc2)c(-c2ccc(OCc3ccc4ccccc4n3)cc2)n1	120%	121%	122%	121%	126%	123%	115%	118%	109%	91.5%	75.5%	121%	127%	120%	132%	122%	121%	120%	120%	104%	65.8%	53.7%	–	–	–	–	–	–	–	–	–	–	–
CC(=O)SCC(Cc1ccccc1)C(=O)NCC(=O)OCc1ccccc1 (stereo unspecified)	93.4%	92.2%	103%	104%	103%	102%	105%	103%	101%	66.9%	8.75%	105%	93.6%	106%	102%	99.9%	98.2%	101%	100%	98.6%	54%	59.3%	85.3%	91.2%	96.2%	94.3%	104%	95.5%	101%	103%	90.1%	34.7%	50.3%
CC(C)(Cc1ccc2ccccc2c1)NC[C@@H](O)COc1cccc(Cl)c1C#N	123%	124%	126%	122%	121%	120%	123%	116%	123%	117%	10.7%	–	–	–	–	–	–	–	–	–	–	–	–	–	–	–	–	–	–	–	–	–	–
C=C1C[C@@]2(O)O[C@@]3(C[C@H]2C(C)C)[C@@H](C)CC[C@@H]13	110%	119%	112%	129%	117%	123%	122%	112%	117%	125%	118%	113%	127%	114%	126%	129%	134%	119%	123%	122%	128%	132%	112%	109%	116%	117%	122%	135%	113%	125%	121%	127%	128%
Cc1c(OCC(F)(F)F)ccnc1C[S+]([O-])c1nc2ccccc2[nH]1 (stereo unspecified)	99.9%	111%	109%	105%	108%	113%	113%	112%	118%	112%	107%	99%	100%	98.2%	94%	106%	115%	108%	112%	114%	101%	102%	102%	102%	102%	111%	104%	103%	110%	112%	108%	111%	96.2%
CC(Oc1ccc(O)cc1)(P(=O)(O)O)P(=O)(O)O	102%	101%	94.9%	100%	101%	99.2%	90.3%	94.9%	85.3%	67.8%	46.7%	92.5%	97.8%	95%	93.7%	100%	98.2%	82.2%	87.2%	81.5%	42.8%	33.6%	97.1%	97.5%	88.6%	98.4%	107%	101%	90.7%	93.1%	87.6%	47.2%	34.6%
CCOC(=O)c1ccc(C#Cc2ccc3c(c2)C(C)(C)CCS3)nc1	98.6%	108%	102%	105%	105%	118%	110%	110%	108%	107%	78.7%	95.2%	96.1%	106%	109%	108%	106%	101%	106%	106%	110%	94.5%	98.8%	99.9%	109%	110%	108%	107%	102%	113%	104%	96.1%	102%
CCOc1ccccc1OCCNC(C)Cc1ccc(OC)c([S+](N)(=O)[O-])c1 (stereo unspecified)	88.4%	104%	113%	109%	103%	111%	114%	105%	104%	108%	107%	104%	111%	111%	110%	114%	106%	114%	114%	117%	117%	114%	82.8%	103%	101%	104%	103%	95.8%	103%	112%	110%	109%	102%
Cn1c(=O)c2c(ncn2CC(O)CO)n(C)c1=O (stereo unspecified)	113%	112%	110%	111%	114%	116%	115%	111%	108%	117%	124%	109%	104%	118%	119%	124%	122%	127%	117%	128%	134%	128%	112%	114%	114%	116%	114%	115%	124%	117%	125%	126%	119%
CC1=C2N=C([NH]C2=CC(=C1)N3CCOCC3)\C4=C(NC[C@@H](O)C5=CC=CC(=C5)Cl)\C=C/NC4=O	102%	104%	103%	109%	113%	110%	112%	115%	106%	100%	90.8%	104%	108%	106%	109%	115%	114%	119%	117%	117%	106%	85.6%	101%	117%	120%	118%	116%	119%	120%	128%	110%	105%	85.7%
NC\1=N\C(=O)N(\C=N1)[C@H]2C[C@H](O)[C@@H](CO)O2	101%	103%	106%	108%	115%	108%	101%	74.1%	42%	34.9%	32.3%	105%	110%	112%	118%	106%	103%	97.2%	70%	37.6%	26.5%	27.5%	107%	109%	103%	106%	105%	107%	102%	72.5%	37.2%	30.3%	31.4%
C[C@@H]1CN(CC(=O)N2CC(C)(C)c3ncc(Cc4ccc(F)cc4)cc32)[C@@H](CN2CCOC[C@H]2C)CN1	102%	113%	81.8%	113%	118%	121%	111%	112%	115%	110%	91.8%	102%	106%	69.7%	118%	118%	132%	114%	128%	125%	116%	98.2%	110%	119%	88.8%	125%	126%	135%	128%	122%	121%	118%	90.8%
